Data reported in patent publication US9233098B2, “Nitrogen-containing fused ring compounds as CRTH2 antagonists” (KBP Biosciences Co., Ltd., priority 2011, dated 2016).
Marks after values point to notes of the source that are not given here.

system: OVA induced BALB/c mice asthma model; assay: OVA induced mice asthma model, cell count of pulmonary alveoli irrigating solution (oral administration); type: in vivo; details: 30 mg/kg oral bid, Mean ± SEM
Description: Test procedure and results are as follows:
After acclimation, female BALB/c mice were divided into a blank control group, a model group and an administration group based on body weight randomly. Animal groups, dosage of administration and volume of administration were as detailed in Table 2. The model group and the administration group were intraperitoneally injected with OVA (ovalbumin) solution (containing […] and 2 mg potassium aluminium sulfate) 0.1 mL/animal to allergize on days 1, 14, the blank control group was injected with PBS (phosphate buffer solution). On days 28, 29, 30, 1% OVA was atomized and inhaled continuously to activate for 30 min, for the blank control group replaced with PBS. On days 27, 28, 29, 30, 31, the animals were administered orally with the pharmaceutical and the solvent. The blank control group was administered with the solvent 2 times every day, 1 h before inhalation of PBS and 7 h after the inhalation; the model group was administered with the solvent 2 times every day, 1 h before the inhalation of OVA for activation and 7 h after activation; the administration group was administered with the pharmaceutical 2 times every day, 1 h before the inhalation of OVA for activation and 7 h after activation. On day 32, the animals were executed, immediately irrigated the lung with 0.5 mL PBS (containing 1% FBS) via bronchus, and the irrigation was repeated 2 times. The irrigating solutions were combined, centrifugated, and the cells were resuspended with 1.5 mL PBS (containing 1% FBS). Cell count of bronchus pulmonary alveoli irrigating solution.

With O=C(O)Cc1nn(Cc2ccc(NC(=O)c3ccc4ccccc4c3)cc2)c2ccccc12 [Compound 9, 2-[1-[4-(2-naphthamido)benzyl]-1H-indazol-3-yl]acetic acid] the “Acidophilic Cell” value was 35.26 ± 4.53** *10^4/mL.

O=C(O)Cc1nn(Cc2ccc(NC(=O)c3ccc4ccccc4c3)cc2)c2ccccc12 [Compound 9, 2-[1-[4-(2-naphthamido)benzyl]-1H-indazol-3-yl]acetic acid] was tested, and the Lymphocytes was 1.33 ± 0.23 *10^4/mL.

In the case of O=C(O)Cc1nn(Cc2ccc(NC(=O)c3ccc4ccccc4c3)cc2)c2ccccc12 [Compound 9, 2-[1-[4-(2-naphthamido)benzyl]-1H-indazol-3-yl]acetic acid], the Macrophages is reported as 55.38 ± 5.1** *10^4/mL.

O=C(O)Cc1nn(Cc2ccc(NC(=O)c3ccc4ccccc4c3)cc2)c2ccccc12 [Compound 9, 2-[1-[4-(2-naphthamido)benzyl]-1H-indazol-3-yl]acetic acid] was tested, and the “Neutrophilic Granulocyte” value was 6.66 ± 1.87* *10^4/mL.

With O=C(O)Cc1nn(Cc2ccc(NC(=O)c3ccc4ccccc4c3)cc2)c2ccccc12 [Compound 9, 2-[1-[4-(2-naphthamido)benzyl]-1H-indazol-3-yl]acetic acid] the “Total White Cell Count” value was 98.63 ± 4.53** *10^4/mL.

target: T1, CRTH2 receptor (Homo sapiens, UniProt Q9Y5Y4); assay: Calcium flux FLIPR assay, antagonism against CRTH2 receptor (PGD2 at EC80); type: cell-based; details: CHO-K1/CRTH2/Gα15 cells; blocking activation induced by PGD2 at EC80
T1 construct: host or cells: CHO-K1/CRTH2/Gα15
T1 sequence (Q9Y5Y4 1-395): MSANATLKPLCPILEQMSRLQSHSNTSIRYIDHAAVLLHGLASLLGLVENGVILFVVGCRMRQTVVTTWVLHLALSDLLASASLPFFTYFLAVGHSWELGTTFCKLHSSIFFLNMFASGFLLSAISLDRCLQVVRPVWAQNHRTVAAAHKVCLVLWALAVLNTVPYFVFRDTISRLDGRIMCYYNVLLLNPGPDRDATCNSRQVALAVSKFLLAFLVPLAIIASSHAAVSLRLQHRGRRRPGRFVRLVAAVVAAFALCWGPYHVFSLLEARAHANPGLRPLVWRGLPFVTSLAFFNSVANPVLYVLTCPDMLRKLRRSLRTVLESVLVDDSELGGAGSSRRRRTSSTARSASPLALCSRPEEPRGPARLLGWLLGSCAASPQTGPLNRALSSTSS
Description: Test procedure The test was performed by Nanjing GenScript Biotech Ltd. by calcium flux assay. Test procedure and results are as follows:
Material for test was weighed accurately, and DMSO was added to dissolve the material for test, mixed and homogenized sufficiently, and formulated to 50 mM. And then, it was diluted to 50 μM by using 20 mM HEPES (hydroxyethylpiperazine ethanesulfonic acid) buffer solution at pH 7.4, and the maximum concentration of the compound was 10000 nM. It was further diluted by 3 folds as a series, and consecutively diluted to 10 concentrations, to reserve.
FLIPR Assay (Real Time Fluorescence Imaging Analysis)
In a 384 black microwell plate, 20 μl of cell solution containing 20000 CHO-K1/CRTH2/Gα15 was added, and was incubated at 37° C., 5% CO2 for 18 h. Then, 20 μl of stain in the FLIPR® Calcium 4 assay kit (kit) was added, and 10 μl of compound solution was added. Then, it was incubated at 37° C. for 60 min, and was incubated at room temperature for 15 min. Within 20 seconds, PGD2 HEPES buffer solution of an agonist PGD2 (prostaglandin D2) at the concentration of EC80 was added, and the values of fluorescence of 21-120 seconds were detected.
Data Processing ΔRFU(Relative fluorescence intensity)=maximum fluorescence value of 21-120 seconds−average value of fluorescence value of 1-20 seconds. Inhibition ratio={1−(ΔRFUcompound−ΔRFUbackground)/(ΔRFUagonists control−ΔRFUbackground)}×100 IC50 values of the compounds (i.e. the concentration of the compound for test needed for blocking 50% of the activation of CRTH2 receptor induced by PGD2 at the concentration of EC80) were calculated based on the inhibition ratios. Test Results and Conclusions

Cc1c(CC(=O)O)c2ccccc2n1Cc1ccc(NC(=O)c2ccc3ccccc3c2)cc1 [Compound 1, 2-[1-[4-(2-naphthamido)benzyl]-2-methyl-1H-indol-3-yl]acetic acid] and Cc1c(Cc2ccc(NC(=O)c3ccc4ccccc4c3)cc2)c2ccccc2n1CC(=O)O [Compound 2, 2-[3-[4-(2-naphthamido)benzyl]-2-methyl-1H-indol-1-yl]acetic acid] are within 1.5-fold of each other in IC50: 2.6 nM for the first, 2.3 nM for the second.

Going from Cc1c(Cc2ccc(NC(=O)c3ccc(C(F)(F)F)cc3)cc2)c2ccccc2n1CC(=O)O [Compound 3, 2-[2-methyl-3-[4-[4-(trifluoromethyl)benzamido]benzyl]-1H-indol-1-yl]acetic acid] to Cc1c(Cc2ccc(NC(=O)c3ccc(Cl)cc3)cc2)c2ccccc2n1CC(=O)O [Compound 6, 2-[3-[4-(4-chlorobenzamido)benzyl]-2-methyl-1H-indol-1-yl]acetic acid], the IC50 falls from 6.2 nM to 0.5 nM (12-fold).

First: Cc1c(Cc2ccc(NC(=O)c3ccc(Cl)c(Cl)c3)cc2)c2ccccc2n1CC(=O)O [Compound 4, 2-[3-[4-(3,4-dichlorobenzamido)benzyl]-2-methyl-1H-indol-1-yl]acetic acid]
Second: CCc1c(Cc2ccc(NC(=O)c3ccc4ccccc4c3)cc2)c2ccccc2n1CC(=O)O [Compound 7, 2-[3-[4-(2-naphthamido)benzyl]-2-ethyl-1H-indol-1-yl]acetic acid]
The IC50 of the first is 2.6-fold lower: 2.7 nM for the first, 7 nM for the second.

Going from O=C(O)Cn1nc(Cc2ccc(NC(=O)c3ccc4ccccc4c3)cc2)c2ccccc21 [Compound 5, 2-[3-(4-(2-naphthamido)benzyl)-1H-indazol-1-yl]acetic acid] to O=C(O)Cc1nn(Cc2ccc(NC(=O)c3ccc4ccccc4c3)cc2)c2ccccc12 [Compound 9, 2-[1-[4-(2-naphthamido)benzyl]-1H-indazol-3-yl]acetic acid], the IC50 rises from 2.3 nM to 3.6 nM (1.6-fold).

O=C(O)Cn1nc(Cc2ccc(NC(=O)c3ccc(Cl)cc3)cc2)c2ccccc21 [Compound 8, 2-[3-[4-(4-chlorobenzamido)benzyl]-1H-indazol-1-yl]acetic acid] and O=C(O)Cc1nn(Cc2ccc(NC(=O)c3ccc(Cl)cc3)cc2)c2ccccc12 [Compound 10, 2-[1-[4-(4-chlorobenzamido)benzyl]-1H-indazol-3-yl]acetic acid] are within 1.5-fold of each other in IC50: 9.7 nM for the first, 7.3 nM for the second.

Compared with O=C(O)Cc1nn(Cc2ccc(NC(=O)c3ccc4ccccc4c3)cc2)c2ccc(F)cc12 [Compound 11, 2-[1-[4-(2-naphthamido)benzyl]-5-fluoro-1H-indazol-3-yl]acetic acid], O=C(O)Cc1nn(Cc2ccc(NC(=O)c3ccc4ccccc4c3)cc2)c2cc(F)ccc12 [Compound 12, 2-[1-[4-(2-naphthamido)benzyl]-6-fluoro-1H-indazol-3-yl]acetic acid] is 13-fold higher in IC50: 1.19 nM for the first, 14.9 nM for the second. The first is the more potent here.

O=C(O)Cc1nn(Cc2ccc(NC(=O)c3ccc4cc(F)ccc4c3)cc2)c2ccccc12 [Compound 13, 2-[1-[4-(6-fluoro-2-naphthamido)benzyl]-1H-indazol-3-yl]acetic acid] and O=C(O)Cc1nn(Cc2ccc(NC(=O)c3ccc4ccccc4c3)cc2)c2ncccc12 [Compound 23, 2-[1-[4-(2-naphthamido)benzyl]-1H-pyrazolo[3,4-b]pyridin-3-yl]acetic acid] are within 1.5-fold of each other in IC50: 4.42 nM for the first, 5.7 nM for the second.

In the case of O=C(O)CCn1c2c(c3ccccc31)C[C@H](NS(=O)(=O)c1ccc(F)cc1)CC2 [Ramatroban, reference compound], the IC50 is reported as 10300 nM.
